These results are taken from BindingDB's records for doi:10.1016/j.bmcl.2005.04.054 (Schering-Plough Research Institute, 2005).

Molecules are shown by their SMILES.

The experiment is described as follows: Inhibitory concentration against BaF3 cell line expressed recombinant human CCR3 using the chemotaxis assay.

One may read the IC50 as the midpoint of a concentration-inhibition curve. On to `O=C(NCC1CCCN(C2CCN(Cc3ccc(Cl)c(Cl)c3)CC2)C1)c1ccc2ncccc2c1` (stereo unspecified) [Quinoline-6-carboxylic acid [1'-(3,4-dichloro-benzyl)-[1,4']bipiperidinyl-3-ylmethyl]-amide], for which the 50% inhibitory concentration (IC50) amounted to 136 nM.
